The record followed here is patent publication US20240101546A1, “HETEROARYL-ACETYLENES, PHARMACEUTICAL COMPOSITIONS THEREOF, AND THEIR THERAPEUTIC APPLICATIONS” (Eubulus Biotherapeutics Inc., priority 2020, published 2024).

The subject of the assay is hepatocellular carcinoma cell line Hub-7. In words: Cell proliferation assay, Hub-7 (CELL-TITER GLO). The note with it: Hub-7 cells, 24 h incubation, cell viability by CELL-TITER GLO, top concentration 10 μM; read-out: EC50, Inhibition of Hub-7 Cell Proliferation. In kind it is cell-based. As to the method: The activity of a compound was determined in a cell proliferation assay using the hepatocellular carcinoma cell line Hub-7. Cells (4,000 cells per well) were seeded in a 96-well tissue culture plate. After incubated overnight, the compound was added at predetermined concentrations, starting with 10 μM and followed by 3-fold serial dilution. After the cells were incubated for 24 h, cell viability was determined using a CELL-TITER GLO® assay. The CELL-TITER GLO® reagent (50 μL) was added to each well and the luminescence was measured by a multimode microplate reader after a brief period of shaking. EC50 values were determined for the compound. The results are summarized in Table 1, wherein A represents a value no greater than 200 nM, B represents a value greater than 200 nM but no greater than 1 μM, C represents a value greater than 1 μM but no greater than 5 μM, and D represents a value greater than 5 μM.

Where only a bound is given, the exact number is not on record here.

Turning to `C#Cc1nc(NC(=O)N2CCC(c3ccc(-c4cccc5ncsc45)cc3)CC2)cs1` [Compound B6, 4-(4-(Benzo[d]thiazol-7-yl)phenyl)-N-(2-ethynylthiazol-4-yl)piperidine-1-carboxamide], the EC50 is at most 200 nM.
With `C#Cc1nc(C(=O)NCCc2ccc(-c3cc4ncsc4cc3F)cc2)cs1` [Compound C1, 2-Ethynyl-N-(4-(6-fluorobenzo[d]thiazol-5-yl)phenethyl)thiazole-4-carboxamide] the figure was 200 to 1000 nM; with `C#Cc1nc(C(=O)NCCc2ccc(-c3cccc4ncsc34)c(F)c2)cs1` [Compound C2, N-(4-(Benzo[d]thiazol-7-yl)-3-fluorophenethyl)-2-ethynylthiazole-4-carboxamide], at most 200 nM.
On to `C#Cc1nc(C(=O)NCCc2ccc(-c3c(C(N)=O)ccc4ncsc34)cc2)cs1` [Compound C3, 7-(4-(2-(2-Ethynylthiazole-4-carboxamido)ethyl)phenyl)benzo[d]thiazole-6-carboxamide], for which the EC50 was 200 to 1000 nM.
As to `C#Cc1nc(C(=O)NCCc2ccc(-c3cccc(C(=O)NC)c3)cc2)cs1` [Compound C4, 2-Ethynyl-N-(2-(3′-(methylcarbamoyl)-[1,1′-biphenyl]-4-yl)ethyl)thiazole-4-carboxamide], the EC50 is at most 200 nM.
In the case of `C#Cc1nc(C(=O)NCCc2ccc(-c3c(F)ccc4ncsc34)cc2)cs1` [Compound C5, 2-Ethynyl-N-(4-(6-fluorobenzo[d]thiazol-7-yl)phenethyl)thiazole-4-carboxamide] it was at most 200 nM; in that of `C#Cc1nc(C(=O)NCCc2ccc(-c3ccccc3S(=O)(=O)N(C)C)cc2)cs1` [Compound C6, N-(2-(2′-(N,N-Dimethylsulfamoyl)-[1,1′-biphenyl]-4-yl)ethyl)-2-ethynylthiazole-4-carboxamide], at most 200 nM; in that of `C#Cc1nc(C(=O)NCCc2ccc(-c3cc(C(N)=O)cc4ncsc34)cc2)cs1` [Compound C8, 7-(4-(2-(2-Ethynylthiazole-4-carboxamido)ethyl)phenyl)benzo[d]thiazole-5-carboxamide], 200 to 1000 nM.
With `C#Cc1nc(C(=O)NCCc2ccc(-c3cc(C(=O)NC)cc4ncsc34)cc2)cs1` [Compound C9, 7-(4-(2-(2-Ethynylthiazole-4-carboxamido)ethyl)phenyl)-N-methylbenzo[d]-thiazole-5-carboxamide] the figure was 200 to 1000 nM.
In the case of `C#Cc1nc(C(=O)NCCc2ccc(-c3cc(C(=O)OC)cc4ncsc34)cc2)cs1` [Compound C10, Methyl 7-(4-(2-(2-ethynylthiazole-4-carboxamido)ethyl)phenyl)benzo[d]thiazole-5-carboxylate] it was at most 200 nM.
In the case of `C#Cc1nc(C(=O)NCCc2ccc(-c3cccc4nccnc34)cc2)cs1` [Compound C11, 2-Ethynyl-N-(4-(quinoxalin-5-yl)phenethyl)thiazole-4-carboxamide], the EC50 fell in the range of 200 to 1000 nM.
On to `C#Cc1nc(C(=O)NCCc2ccc(-c3ccccc3C(=O)NC)cc2)cs1` [Compound C12, 2-Ethynyl-N-(2-(2′-(methylcarbamoyl)-[1,1′-biphenyl]-4-yl)ethyl)thiazole-4-carboxamide], for which the EC50 was in the range of 1000 to 5000 nM.
In the case of `C#Cc1nc(C(=O)NCCc2ccc(-c3cccc4c3C(=O)NC4)cc2)cs1` [Compound C13, 2-Ethynyl-N-(4-(3-oxoisoindolin-4-yl)phenethyl)thiazole-4-carboxamide] it was 200 to 1000 nM; in that of `C#Cc1nc(C(=O)NCCc2ccc(-c3cccc4c3C(=O)C(=O)N4)cc2)cs1` [Compound C14, N-(4-(2,3-Dioxoindolin-4-yl)phenethyl)-2-ethynylthiazole-4-carboxamide], 200 to 1000 nM.
In the case of `C#Cc1nc(C(=O)NCCc2ccc(-c3ccccc3S(C)(=O)=O)cc2)cs1` [Compound C15, 2-Ethynyl-N-(2-(2′-(methylsulfonyl)-[1,1′-biphenyl]-4-yl)ethyl)thiazole-4-carboxamide], the EC50 was in the range of 200 to 1000 nM.
With `C#Cc1nc(C(=O)NCCc2ccc(-c3cccc4ccnc(O)c34)cc2)cs1` [Compound C16, 2-Ethynyl-N-(4-(1-hydroxyisoquinolin-8-yl)phenethyl)thiazole-4-carboxamide] the figure was 200 to 1000 nM; with `C#Cc1nc(C(=O)NCCc2ccc(-c3cccc4c3CNC4=O)cc2)cs1` [Compound C17, 2-Ethynyl-N-(4-(1-oxoisoindolin-4-yl)phenethyl)thiazole-4-carboxamide], at most 200 nM.
In the case of `C#Cc1nc(C(=O)NCCc2ccc(-c3cccc4c3C(=O)CC4)cc2)cs1` [Compound C18, 2-Ethynyl-N-(4-(3-oxo-2,3-dihydro-1H-inden-4-yl)phenethyl)thiazole-4-carboxamide] it was 200 to 1000 nM; in that of `C#Cc1nc(C(=O)NCCc2ccc(-c3cncc4ncsc34)cc2)cs1` [Compound C19, 2-Ethynyl-N-(4-(thiazolo[4,5-c]pyridin-7-yl)phenethyl)thiazole-4-carboxamide], 200 to 1000 nM.
In the case of `C#Cc1nc(C(=O)NCCc2ccc(-c3ccccc3S(=O)(=O)NC)cc2)cs1` [Compound C20, 2-Ethynyl-N-(2-(2′-(N-methylsulfamoyl)-[1,1′-biphenyl]-4-yl)ethyl)thiazole-4-carboxamide] it was 200 to 1000 nM; in that of `C#Cc1nc(C(=O)NCCc2ccc(-c3cccc4cnccc34)cc2)cs1` [Compound C21, 2-Ethynyl-N-(4-(isoquinolin-5-yl)phenethyl)thiazole-4-carboxamide], at most 200 nM; in that of `C#Cc1nc(C(=O)NCCc2ccc(-c3cccc4c3CN(C)C4=O)cc2)cs1` [Compound C22, 2-Ethynyl-N-(4-(2-methyl-1-oxoisoindolin-4-yl)phenethyl)thiazole-4-carboxamide], 200 to 1000 nM.
Take `C#Cc1nc(C(=O)NCCc2ccc(-c3cccc4ncccc34)cc2)cs1` [Compound C23, 2-Ethynyl-N-(4-(quinolin-5-yl)phenethyl)thiazole-4-carboxamide]: the EC50 lay within 200 to 1000 nM.
With `C#Cc1nc(C(=O)NCCc2ccc(-c3cccc4ncncc34)cc2)cs1` [Compound C24, 2-Ethynyl-N-(4-(quinazolin-5-yl)phenethyl)thiazole-4-carboxamide] the figure was at most 200 nM; with `C#Cc1nc(C(=O)NCCc2ccc(-c3ccc4scnc4c3)cc2)cs1` [Compound C25, N-(4-(Benzo[d]thiazol-5-yl)phenethyl)-2-ethynylthiazole-4-carboxamide], 200 to 1000 nM.
With `C#Cc1nc(C(=O)NCCc2cccc(-c3cccc4c3CC(=O)N4C)c2)cs1` [Compound C26, 2-Ethynyl-N-(3-(1-methyl-2-oxoindolin-4-yl)phenethyl)thiazole-4-carboxamide] the figure was 1000 to 5000 nM; with `C#Cc1nc(C(=O)NCCc2cccc(-c3cccc4c3CC(=O)N4)c2)cs1` [Compound C27, 2-Ethynyl-N-(3-(2-oxoindolin-4-yl)phenethyl)thiazole-4-carboxamide], 200 to 1000 nM.
In the case of `C#Cc1nc(C(=O)NCc2ccc(-c3cccc4[nH]ccc34)cc2)cs1` [Compound C28, N-(4-(1H-Indol-4-yl)benzyl)-2-ethynylthiazole-4-carboxamide] it was 1000 to 5000 nM.
For the compound `C#Cc1nc(C(=O)NCCc2cccc(-c3cccc4nn(C)cc34)c2)cs1` [Compound C29, 2-Ethynyl-N-(3-(2-methyl-2H-indazol-4-yl)phenethyl)thiazole-4-carboxamide], the EC50 was 200 to 1000 nM.
As to `C#Cc1nc(C(=O)NCCc2cccc(-c3cccc4c3cnn4C)c2)cs1` [Compound C30, 2-Ethynyl-N-(3-(1-methyl-1H-indazol-4-yl)phenethyl)thiazole-4-carboxamide], the EC50 lay in the range of 1000 to 5000 nM.
With `C#Cc1nc(C(=O)NCCc2ccc(-c3cccc4scnc34)cc2)cs1` [Compound C31, N-(4-(Benzo[d]thiazol-4-yl)phenethyl)-2-ethynylthiazole-4-carboxamide] the figure was 200 to 1000 nM; with `C#Cc1nc(C(=O)NCCc2ccc(-c3cccc4nn(C)cc34)cc2)cs1` [Compound C32, 2-Ethynyl-N-(4-(2-methyl-2H-indazol-4-yl)phenethyl)thiazole-4-carboxamide], 200 to 1000 nM; with `C#Cc1nc(C(=O)NCCc2ccc(-c3cccc4c3cnn4C)cc2)cs1` [Compound C33, 2-Ethynyl-N-(4-(1-methyl-1H-indazol-4-yl)phenethyl)thiazole-4-carboxamide], 200 to 1000 nM.
In the case of `C#Cc1nc(C(=O)NCCc2ccc(-c3cccc4ncsc34)cc2)cs1` [Compound C34, N-(4-(Benzo[d]thiazol-7-yl)phenethyl)-2-ethynylthiazole-4-carboxamide] it was at most 200 nM.
With `C#Cc1nc(C(=O)NCCc2cccc(-c3cccc4c3ccn4C)c2)cs1` [Compound C35, 2-Ethynyl-N-(3-(1-methyl-1H-indol-4-yl)phenethyl)thiazole-4-carboxamide] the figure was 200 to 1000 nM.
As for `C#Cc1nc(C(=O)NCCc2cccc(-c3cccc4[nH]ccc34)c2)cs1` [Compound C36, N-(3-(1H-Indol-4-yl)phenethyl)-2-ethynylthiazole-4-carboxamide], the EC50 lay within 200 to 1000 nM.
With `C#Cc1nc(C(=O)NCc2ccc(-c3cccc4c3CC(=O)N4)cc2)cs1` [Compound C37, 2-Ethynyl-N-(4-(2-oxoindolin-4-yl)benzyl)thiazole-4-carboxamide] the figure was 1000 to 5000 nM; with `C#Cc1nc(C(=O)NCCc2cccc(-c3cccnc3)c2)cs1` [Compound C38, 2-Ethynyl-N-(3-(pyridin-3-yl)phenethyl)thiazole-4-carboxamide], 1000 to 5000 nM; with `C#Cc1nc(C(=O)NCCc2cccc(-c3cccc4[nH]ncc34)c2)cs1` [Compound C39, N-(3-(1H-Indazol-4-yl)phenethyl)-2-ethynylthiazole-4-carboxamide], 200 to 1000 nM.
